The text below walks through data of patent US7589104B2, “Tricyclic-bridged piperidinyline derivatives as §-opioid modulators” (Janssen Pharmaceutica NV, priority 2004, dated 2009).

Test [1] addresses T1, mu opioid receptor (Rattus norvegicus, UniProt P33535).
T1 construct: Following incubation with the mu selective peptide ligand, ˜0.8 nM [^3H]DAMGO; from tissue; host or cells: forebrain of male Wistar rats (Charles River)
Description: Rat Brain Mu Opioid Receptor Binding Assay.

For test [2], the target named is T2, delta opioid receptor (Rattus norvegicus, UniProt P33533).
T2 construct: from tissue; host or cells: forebrain of male Wistar rats (Charles River)
T2 sequence (P33533 whole entry): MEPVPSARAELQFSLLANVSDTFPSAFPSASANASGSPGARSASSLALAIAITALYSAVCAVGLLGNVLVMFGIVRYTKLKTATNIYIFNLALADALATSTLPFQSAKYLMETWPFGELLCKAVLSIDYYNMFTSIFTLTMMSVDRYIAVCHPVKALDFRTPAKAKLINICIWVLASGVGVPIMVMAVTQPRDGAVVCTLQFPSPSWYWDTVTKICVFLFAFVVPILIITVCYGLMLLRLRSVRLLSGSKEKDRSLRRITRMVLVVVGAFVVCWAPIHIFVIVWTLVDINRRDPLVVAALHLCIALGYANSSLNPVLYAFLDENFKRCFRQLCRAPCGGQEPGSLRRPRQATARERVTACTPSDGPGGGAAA
Description: Rat Brain Delta Opioid Receptor Binding Assay.

Test [3] addresses T3, delta opioid receptor (Mus musculus, UniProt P32300).
T3 construct: NG108-15 cell membranes were purchased from Applied Cell Sciences (Rockville, Md.); host or cells: NG108-15 cell membranes (purchased)
As to the kind of experiment: [35S]GTPγS Binding Assay in NG108-15 Cell Membranes (Delta Opioid). Format: biochemical. Conditions: for delta GTPgS Rel Eff: relative efficacy. How it is done:
Methods: NG108-15 cell membranes were purchased from Applied Cell Sciences (Rockville, Md.). 8 mg/mL of membrane protein suspended in 10 mM TRIS-HCl pH 7.2, 2 mM EDTA, 10% sucrose. Membranes were maintained at 4-8° C. A 1 mL volume of membranes was added into 10 mL cold binding assay buffer. The assay buffer contained 50 mM Tris, pH 7.6, 5 mM MgCl2, 100 mM NaCl, 1 mM DTT and 1 mM EGTA. The membrane suspension was homogenized twice with a Polytron, and centrifuged at 3000 rpm for 10 min. The supernatant was then centrifuged at 18,000 rpm for 20 min. Ten mL assay buffer was added into the pellet containing tube. The pellet and buffer were mixed with a Polytron.
Incubation procedure: The pellet membranes (75 μg/mL) were preincubated with SPA (10 mg/mL) at 25° C. for 45 min in the assay buffer. […] GTPγS in the same Tris buffer containing 100 μM GDP in total volume of 200 μL. Increasing concentrations of receptor agonists were used to stimulate [35S]- GTPγS binding. The basal binding was tested in the absence of agonists and non-specific binding was tested in the presence of 10 μM unlabeled GTPγS. The data were analyzed on a Packard Top Count.
% of Basal=(stimulated−non specific)*100/(basal−non specific). EC50 values were calculated using GraphPad Prism.

Where [4] appears, read: rat forebrain membranes, [3H]DAMGO, read-out: mu (Ki).
Setting [5] is: NG108-15 cell membranes, stimulation of [35S]GTPγS binding, read-out: delta GTPgS EC50.

Read-outs that look alike come from different tables or passages of the source.

T1 sequence (P33535 whole entry): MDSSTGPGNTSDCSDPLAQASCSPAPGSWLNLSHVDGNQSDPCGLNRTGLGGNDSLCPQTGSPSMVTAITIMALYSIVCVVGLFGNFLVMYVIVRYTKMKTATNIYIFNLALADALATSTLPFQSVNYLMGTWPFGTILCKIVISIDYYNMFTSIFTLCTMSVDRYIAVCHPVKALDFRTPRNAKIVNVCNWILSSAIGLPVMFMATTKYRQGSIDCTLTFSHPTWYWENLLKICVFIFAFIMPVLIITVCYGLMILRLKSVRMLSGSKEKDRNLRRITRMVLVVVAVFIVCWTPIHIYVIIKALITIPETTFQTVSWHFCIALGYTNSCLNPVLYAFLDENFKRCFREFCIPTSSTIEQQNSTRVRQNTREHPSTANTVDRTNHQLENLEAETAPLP
T3 sequence (P32300 whole entry): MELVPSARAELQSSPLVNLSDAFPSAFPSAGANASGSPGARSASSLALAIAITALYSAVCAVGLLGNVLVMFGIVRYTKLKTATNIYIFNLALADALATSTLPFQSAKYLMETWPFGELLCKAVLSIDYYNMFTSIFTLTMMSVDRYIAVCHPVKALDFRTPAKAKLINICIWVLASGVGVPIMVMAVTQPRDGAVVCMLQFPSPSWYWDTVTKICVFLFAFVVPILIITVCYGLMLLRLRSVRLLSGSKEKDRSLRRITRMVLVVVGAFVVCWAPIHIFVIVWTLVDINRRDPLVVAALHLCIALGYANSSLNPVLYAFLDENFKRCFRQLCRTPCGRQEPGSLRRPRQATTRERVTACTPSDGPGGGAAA

For “9-(8-Furan-3-ylmethyl-8-aza-bicyclo[3.2.1]oct-3-ylidene)-9H-xanthene-3-carboxylic acid diethylamide [Compound 10a]”, the Ki worked out at 546 nM in test [1] (setting [4]) and 12.3 nM in test [2] (rat forebrain membranes, [3H]DPDPE or [3H]naltrindole, read-out: delta (Ki)). Besides, the “delta GTPgS Rel Eff” value in test [3] (NG108-15 cell membranes) amounted to 0.75. Besides, the EC50 in test [3] (setting [5]) is 21.1 nM.
For `CCN(CC)C(=O)c1ccc2c(c1)Oc1c(OC)cccc1C2C1CC2CCC(C1)N2` (stereo not shown) [Compound 7c, 9-(8-Aza-bicyclo[3.2.1]oct-3-yl)-5-methoxy-9H-xanthene-3-carboxylic acid diethylamide], the Ki in test [1] came to 463 nM; in test [2], 3.1 nM. The molecule also gave an EC50 in test [3] of 29.2 nM. The “delta GTPgS Rel Eff” value in test [3] (NG108-15 cell membranes) is 0.80.
For the molecule `CCN(CC)C(=O)c1ccc2c(c1)Oc1c(O)cccc1C2C1CC2CCC(C1)N2` (stereo not shown) [Compound 8c, 9-(8-Aza-bicyclo[3.2.1]oct-3-yl)-5-hydroxy-9H-xanthene-3-carboxylic acid diethylamide], the results for the Ki in test [1] and in test [2] were 75 nM and 1.29 nM, respectively. In test [3], this molecule registered an EC50 of 5 nM. Further, the “delta GTPgS Rel Eff” value in test [3] (NG108-15 cell membranes) was determined as 0.85.
As to `CCN(CC)C(=O)c1ccc2c(c1)Oc1c(O)cccc1C2C1CC2CCC(C1)N2Cc1ccoc1` (stereo not shown) [Compound 9c, 9-(8-Furan-3-ylmethyl-8-aza-bicyclo[3.2.1]oct-3-yl)-5-hydroxy-9H-xanthene-3-carboxylic acid diethylamide], the Ki in test [1] amounted to 73 nM; in test [2] it was 0.73 nM. In test [3], this molecule had an EC50 of 4.6 nM. Besides, in test [3] (NG108-15 cell membranes), the “delta GTPgS Rel Eff” value was 1.02.
For `CCN(CC)C(=O)c1ccc2c(c1)Oc1c(O)cccc1C2C1CC2CCC(C1)N2Cc1ncc[nH]1` (stereo not shown) [Compound 10c, 5-Hydroxy-9-[8-(1H-imidazol-2-ylmethyl)-8-aza-bicyclo[3.2.1]oct-3-yl]-9H-xanthene-3-carboxylic acid diethylamide], the Ki in test [1] amounted to 70 nM; in test [2] it was 0.32 nM. This molecule also had an EC50 in test [3] of 6.4 nM. Further, the “delta GTPgS Rel Eff” value in test [3] (NG108-15 cell membranes) amounted to 0.94.
In the case of `CCN(CC)C(=O)c1ccc2c(c1)Oc1ccccc1C2C1CC2CCC(C1)N2Cc1ccccc1` (stereo not shown) [Compound 11a, 9-(8-Benzyl-8-aza-bicyclo[3.2.1]oct-3-yl)-9H-xanthene-3-carboxylic acid diethylamide], the Ki in test [1] came to 1120 nM; in test [2], 19.9 nM. In addition, the EC50 in test [3] turned out to be 118 nM. In addition, in test [3] (NG108-15 cell membranes), the “delta GTPgS Rel Eff” value came out at 0.78.
Taken in the same sequence, the figures for `CCN(CC)C(=O)c1ccc2c(c1)Oc1ccccc1C2C1CC2CCC(C1)N2Cc1cccs1` (stereo not shown) [Compound 14a, 9-(8-Thiophen-2-ylmethyl-8-aza-bicyclo[3.2.1]oct-3-yl)-9H-xanthene-3-carboxylic acid diethylamide] were 1650 nM, 18.7 nM, 96.9 nM and 0.65.
Turning to `CCN(CC)C(=O)c1ccc2c(c1)Oc1ccccc1C2C1CC2CCC(C1)N2Cc1ccccn1` (stereo not shown) [Compound 15a, 9-(8-Pyridin-2-ylmethyl-8-aza-bicyclo[3.2.1]oct-3-yl)-9H-xanthene-3-carboxylic acid diethylamide], the Ki turned out to be 1410 nM in test [1] (setting [4]) and 11.1 nM in test [2]. Further, in test [3] (setting [5]), the EC50 was found to be 155 nM.
